The assay concerns the target TRPA1 (Homo sapiens, UniProt O75762). The experiment in a line: Determination of TRPA1 activity in vitro (TRPA1 antagonism in vitro). The assay is classed as cell-based. The following applies: procedure of Wei et al., Anesthesiology 111 (2009) 147-154.
TRPA1, sequence (O75762 whole entry): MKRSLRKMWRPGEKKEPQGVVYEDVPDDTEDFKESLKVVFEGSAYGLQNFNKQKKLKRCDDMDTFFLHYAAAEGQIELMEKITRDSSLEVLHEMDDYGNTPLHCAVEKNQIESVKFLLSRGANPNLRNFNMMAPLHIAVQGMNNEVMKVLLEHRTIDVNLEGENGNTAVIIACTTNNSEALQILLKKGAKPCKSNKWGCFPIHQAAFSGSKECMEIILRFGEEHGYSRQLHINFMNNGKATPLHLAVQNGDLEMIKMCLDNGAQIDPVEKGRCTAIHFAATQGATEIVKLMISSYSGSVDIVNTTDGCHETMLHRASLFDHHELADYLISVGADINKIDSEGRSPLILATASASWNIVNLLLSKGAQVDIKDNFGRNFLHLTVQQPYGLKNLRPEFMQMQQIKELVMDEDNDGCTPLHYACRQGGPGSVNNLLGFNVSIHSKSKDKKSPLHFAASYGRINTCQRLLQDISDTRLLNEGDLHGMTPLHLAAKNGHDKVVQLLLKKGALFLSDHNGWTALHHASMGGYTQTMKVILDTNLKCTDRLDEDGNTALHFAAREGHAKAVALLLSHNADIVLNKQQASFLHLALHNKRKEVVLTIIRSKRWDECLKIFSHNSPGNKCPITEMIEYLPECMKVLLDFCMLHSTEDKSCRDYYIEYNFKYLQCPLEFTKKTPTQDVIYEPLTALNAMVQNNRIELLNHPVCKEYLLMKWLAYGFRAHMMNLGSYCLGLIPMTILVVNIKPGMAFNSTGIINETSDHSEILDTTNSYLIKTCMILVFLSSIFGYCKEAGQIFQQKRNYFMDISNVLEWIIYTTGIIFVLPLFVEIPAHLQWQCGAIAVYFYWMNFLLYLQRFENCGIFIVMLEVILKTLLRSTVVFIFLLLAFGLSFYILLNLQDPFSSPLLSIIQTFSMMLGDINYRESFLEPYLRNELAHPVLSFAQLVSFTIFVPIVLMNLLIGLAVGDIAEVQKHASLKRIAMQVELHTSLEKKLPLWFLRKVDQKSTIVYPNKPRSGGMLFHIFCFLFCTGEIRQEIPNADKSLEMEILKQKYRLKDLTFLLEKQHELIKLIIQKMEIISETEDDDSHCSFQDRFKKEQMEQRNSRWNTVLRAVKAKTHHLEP
As a reminder, the IC50 is the concentration that inhibits the measured activity by half. A high value points to a need for much substance. Compound `C#CC(C)(C)NC(=O)c1cc2c(cc1NCCC(F)(F)F)OCCO2` [Example 6, N-(2-Methylbut-3-yn-2-yl)-7-(3,3,3-trifluoropropylamino)-2,3-dihydrobenzo[b][1,4]dioxine-6-carboxamide] returned an IC50 of 11.8 µM.

Take `C#CC(C)(C)NC(=O)c1cncnc1Nc1ccc(C(F)(F)F)cc1` [Example 161, N-(2-Methylbut-3-yn-2-yl)-4-(4-(trifluoromethyl)phenylamino)-pyrimidine-5-carboxamide]: inhibition was half-maximal at 1.3 µM (IC50).

`C#CC(C)(C)NC(=O)c1cc(C)ccc1NCC(F)(F)C(F)(F)F` [Example 30, 5-Methyl-N-(2-methylbut-3-yn-2-yl)-2-(2,2,3,3,3-pentafluoropropyl-amino)benzamide] came in with a half-maximal inhibitory concentration (IC50) of 0.3 µM. This IC50 lies about 4.3-fold lower than the previous one.

As to `C#CC(C)(C)NC(=O)c1ccc(Cl)cc1NCCC` [Example 13, 4-Chloro-N-(2-methylbut-3-yn-2-yl)-2-(propylamino)benzamide], the IC50 turned out to be 0.8 µM.

With `C#CC(C)(C)NC(=O)c1ccsc1NCCCC` [Example 130, 2-(Butylamino)-N-(2-methylbut-3-yn-2-yl)thiophene-3-carboxamide], the IC50 came to 2.1 µM.

In the case of `C#CC(C)(C)NC(=O)c1cc(F)cnc1Nc1cc(C)ns1` [Example 137, 5-Fluoro-N-(2-methylbut-3-yn-2-yl)-2-(3-methylisothiazol-5-ylamino)nicotinamide], the IC50 stood at 9.9 µM.

As to `C#CC(C)(C)NC(=O)c1cccnc1NC(C)(C)C` [Example 101, 2-(tert-Butylamino)-N-(2-methylbut-3-yn-2-yl)nicotinamide], half-maximal inhibition (IC50) was put at 11.9 µM. The IC50 values of the last two compounds are within 1.5-fold of each other.

`C#CC(C)(C)NC(=O)c1ccc(C(F)(F)F)cc1NCCOC` [Example 89, 2-(2-Methoxyethylamino)-N-(2-methylbut-3-yn-2-yl)-4-(trifluoro-methyl)benzamide] displayed an IC50 of 8.6 µM.

Turning to `C#CC(C)(C)NC(=O)c1ccc(Cl)nc1NCC` [Example 113, 6-Chloro-2-(ethylamino)-N-(2-methylbut-3-yn-2-yl)nicotinamide], the IC50 was found to be 7.2 µM. This IC50 and that of the compound before are within 1.5-fold of each other.

In turn, `C#CC(C)(CC)NC(=O)c1cccnc1Nc1ccc(Cl)c(OC)c1` (stereo not shown) [Example 197, 2-(4-Chloro-3-methoxyphenylamino)-N-(3-methylpent-1-yn-3-yl)nicotinamide] displayed an IC50 of 0.7 µM.

`C#CC(C)(C)NC(=O)c1ccc(Cl)nc1NC(C)C` [Example 112, 6-Chloro-2-(isopropylamino)-N-(2-methylbut-3-yn-2-yl)nicotinamide]: 3.4 µM corresponded to half-maximal inhibition (IC50).

As to `C#CC(C)(C)NC(=O)c1cc(OC(F)(F)F)ccc1NC` [Example 85, 2-(Methylamino)-N-(2-methylbut-3-yn-2-yl)-5-(trifluoromethoxy)-benzamide], the IC50 was determined as 13.2 µM.

Compound `C#CC(C)(CC)NC(=O)c1cccnc1Nc1cc(OC)ccc1F` (stereo not shown) [Example 180, 2-(2-Fluoro-5-methoxyphenylamino)-N-(3-methylpent-1-yn-3-yl)nicotinamide] registered an IC50 of 1.4 µM.

The compound `C#CC(CC)(CC)NC(=O)c1cc(F)cnc1NC1CC(F)(F)C1` [Example 163, 2-(3,3-Difluorocyclobutylamino)-N-(3-ethylpent-1-yn-3-yl)-5-fluoronicotinamide] showed an IC50 of 0.1 µM.

As for `C#CC(C)(C)NC(=O)c1cc(F)cnc1NCC(F)(F)F` [Example 33, 5-Fluoro-N-(2-methylbut-3-yn-2-yl)-2-(2,2,2-trifluoroethylamino)-nicotinamide], the IC50 came to 3 µM.

`C#CC(C)(C)NC(=O)c1cc(F)cnc1NC1CC(F)(F)C1` [Example 156, 2-(3,3-Difluorocyclobutylamino)-5-fluoro-N-(2-methylbut-3-yn-2-yl)nicotinamide] had an IC50 of 1.6 µM.
